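In this assay, cells in 96-well plates receive the compound at five concentrations for 48 hours. Endpoints are linearly interpolated between the surrounding concentrations. GI50 is the concentration that inhibits growth by half.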 Activity calls are given as the source filed them. Cut-off read from the data, not from the text of the source: active = GI50 up to about 1.1 µM and inactive = higher.
Key:
Test in all cases: NCI tumour cell line growth inhibition, 48 h
SW-620 = system: SW-620
NCI-H522 = system: NCI-H522
786-0 = system: 786-0
RPMI-8226 = system: RPMI-8226
SF-268 = system: SF-268
OVCAR-4 = system: OVCAR-4
SNB-19 = system: SNB-19
U-251 = system: U-251
SK-MEL-2 = system: SK-MEL-2
HCT-15 = system: HCT-15
HT-29 = system: HT-29
LOX IMVI = system: LOX IMVI
IGROV-1 = system: IGROV-1
HCC 2998 = system: HCC 2998
OVCAR-8 = system: OVCAR-8
M14 = system: M14
RXF 393 = system: RXF 393

Measured: GI50

CN(C)c1[se]nc2c1c(=O)n(C)c(=O)n2C
> 100 µM: HCT-15
inactive: SW-620 > 100 µM | NCI-H522 > 100 µM | 786-0 > 100 µM | RPMI-8226 > 100 µM | SF-268 > 100 µM | OVCAR-4 > 100 µM | SNB-19 > 100 µM | U-251 > 100 µM | SK-MEL-2 > 100 µM | HT-29 > 100 µM | LOX IMVI > 100 µM | IGROV-1 > 100 µM | HCC 2998 > 100 µM | OVCAR-8 > 100 µM

CN(C)CCNC(=O)c1cccc2ccc(-c3ccc(-c4ccccc4)cc3)nc12
inactive: SW-620 2.11 µM | NCI-H522 1.88 µM | M14 1.77 µM | 786-0 1.79 µM | SF-268 3.37 µM | OVCAR-4 2.72 µM | SNB-19 11.4 µM | U-251 2.14 µM | SK-MEL-2 18.3 µM | HT-29 1.75 µM | LOX IMVI 1.63 µM | IGROV-1 12.6 µM | RXF 393 2.22 µM | HCC 2998 1.83 µM | OVCAR-8 2.56 µM
1.98 µM: HCT-15

O=C1Nc2ccccc2/C1=N/NC(=O)c1ccccc1O
inactive: SW-620 46.8 µM | NCI-H522 39.7 µM | M14 50.1 µM | 786-0 53.3 µM | RPMI-8226 56.5 µM | SF-268 44.4 µM | OVCAR-4 75.5 µM | SNB-19 62.2 µM | U-251 23.2 µM | SK-MEL-2 23 µM | HT-29 82.2 µM | LOX IMVI 48.4 µM | RXF 393 16.6 µM | HCC 2998 23 µM | OVCAR-8 44.5 µM
32.6 µM: HCT-15

CCN(CC)c1ccc(/N=C2/C=CC(=O)c3ncccc32)c(C)c1
inactive: SW-620 2.53 µM | M14 3.02 µM | 786-0 5.02 µM | RPMI-8226 2.93 µM | SF-268 8.32 µM | OVCAR-4 2.11 µM | SNB-19 16.1 µM | U-251 6.92 µM | SK-MEL-2 15.1 µM | HT-29 15.1 µM | LOX IMVI 1.91 µM | IGROV-1 6.65 µM | RXF 393 3.48 µM | HCC 2998 11.7 µM | OVCAR-8 3.42 µM
3.08 µM: HCT-15

CC1CCP(=O)(c2ccccc2)CC1 (stereo not given)
inactive: SW-620 > 100 µM | M14 > 100 µM | 786-0 > 100 µM | RPMI-8226 > 100 µM | SF-268 > 100 µM | OVCAR-4 > 100 µM | SNB-19 > 100 µM | U-251 > 100 µM | SK-MEL-2 > 100 µM | HT-29 > 100 µM | LOX IMVI > 100 µM | IGROV-1 > 100 µM | RXF 393 > 100 µM | HCC 2998 > 100 µM | OVCAR-8 > 100 µM
> 100 µM: HCT-15

[O-][n+]1c2cc(CN3CCOCC3)c(CN3CCOCC3)cc2[n+]([O-])c2c(O)cccc21
inactive: SW-620 2.94 µM | NCI-H522 1.88 µM | M14 3.64 µM | 786-0 1.41 µM | RPMI-8226 3.32 µM | OVCAR-4 4.29 µM | SNB-19 9.44 µM | U-251 3.25 µM | SK-MEL-2 5.56 µM | HT-29 3.91 µM | LOX IMVI 4.02 µM | IGROV-1 5 µM | OVCAR-8 2.48 µM
active: SF-268 1.05 µM | RXF 393 0.968 µM
3.44 µM: HCT-15

COC(=O)NC(=O)c1cn(CCCOC(=O)CCCCCCCCC(=O)OCCCn2cc(C(=O)NC(=O)OC)c(=O)[nH]c2=O)c(=O)[nH]c1=O
> 100 µM: HCT-15
inactive: SW-620 > 100 µM | M14 > 100 µM | 786-0 88.5 µM | RPMI-8226 > 100 µM | SF-268 31.3 µM | OVCAR-4 > 100 µM | SNB-19 42.4 µM | SK-MEL-2 > 100 µM | HT-29 > 100 µM | LOX IMVI > 100 µM | IGROV-1 85.1 µM | RXF 393 29.4 µM | HCC 2998 > 100 µM | OVCAR-8 23.9 µM

CC(=O)NNc1nc(C)c(C(=O)/C=C/c2ccc(Cl)cc2)s1
inactive: SW-620 > 100 µM | NCI-H522 > 100 µM | 786-0 > 100 µM | RPMI-8226 > 100 µM | SF-268 > 100 µM | SNB-19 > 100 µM | U-251 > 100 µM | SK-MEL-2 > 100 µM | HT-29 > 100 µM | LOX IMVI > 100 µM | IGROV-1 > 100 µM | RXF 393 > 100 µM | HCC 2998 > 100 µM | OVCAR-8 > 100 µM

CC(C(=O)c1ccccc1)C1(O)C(=O)Nc2ccc(Cl)cc21 (stereo not given)
81.8 µM: HCT-15
inactive: SW-620 49.1 µM | M14 > 100 µM | 786-0 40.3 µM | RPMI-8226 48 µM | SF-268 > 100 µM | OVCAR-4 19.2 µM | SNB-19 > 100 µM | U-251 53.8 µM | SK-MEL-2 > 100 µM | HT-29 75.7 µM | LOX IMVI 50.6 µM | IGROV-1 > 100 µM | RXF 393 > 100 µM | HCC 2998 > 100 µM | OVCAR-8 > 100 µM

O=C1C=CC=CC2CC=C[C@@H](O)C12 (stereo not given in full)
17.3 µM: HCT-15
inactive: SW-620 10.5 µM | NCI-H522 13.7 µM | M14 18.7 µM | 786-0 17.2 µM | RPMI-8226 3.41 µM | SF-268 21.3 µM | OVCAR-4 31 µM | SNB-19 22.9 µM | U-251 > 10 µM | SK-MEL-2 22.1 µM | HT-29 16.8 µM | LOX IMVI 15.6 µM | IGROV-1 39.6 µM | OVCAR-8 29.6 µM

CN(CCN(C)C(=O)CCOS(C)(=O)=O)C(=O)CCOS(C)(=O)=O
> 100 µM: HCT-15
inactive: SW-620 > 100 µM | NCI-H522 > 100 µM | M14 > 100 µM | 786-0 > 100 µM | RPMI-8226 > 100 µM | SF-268 77.8 µM | OVCAR-4 > 100 µM | SNB-19 > 100 µM | U-251 > 100 µM | SK-MEL-2 > 100 µM | HT-29 > 100 µM | LOX IMVI > 100 µM | IGROV-1 > 100 µM | HCC 2998 > 100 µM | OVCAR-8 > 100 µM

CN(C(=O)C12C3C4C1C1C2C3C41C(O)C(C)(C)C)C(C)(C)C (stereo not given)
inactive: SW-620 > 100 µM | NCI-H522 58.2 µM | M14 > 100 µM | 786-0 > 100 µM | RPMI-8226 > 100 µM | SF-268 > 100 µM | OVCAR-4 > 100 µM | SNB-19 > 100 µM | U-251 > 100 µM | SK-MEL-2 > 100 µM | HT-29 > 100 µM | LOX IMVI > 100 µM | IGROV-1 > 100 µM | HCC 2998 > 100 µM | OVCAR-8 > 100 µM

CCN(CC)CCNC(=O)c1ccccc1Nc1c(Cl)cccc1Cl
12.6 µM: HCT-15
inactive: SW-620 15.3 µM | M14 18.1 µM | 786-0 6.34 µM | RPMI-8226 12.2 µM | SF-268 18.2 µM | OVCAR-4 14.8 µM | SNB-19 16.4 µM | U-251 6.56 µM | HT-29 6.15 µM | LOX IMVI 11.3 µM | IGROV-1 19.1 µM | RXF 393 12.3 µM | HCC 2998 6.82 µM | OVCAR-8 16.4 µM

CC1=C(C)C(=O)c2c(cc3ccc4ccccc4n23)C1=O
> 100 µM: HCT-15
inactive: SW-620 > 100 µM | M14 > 100 µM | 786-0 > 100 µM | RPMI-8226 > 100 µM | SF-268 > 100 µM | OVCAR-4 > 100 µM | SNB-19 > 100 µM | U-251 > 100 µM | HT-29 > 100 µM | LOX IMVI > 100 µM | IGROV-1 > 100 µM | RXF 393 > 100 µM | HCC 2998 > 100 µM | OVCAR-8 > 100 µM

CN(C)CCNC(=O)c1cccc2c(Nc3ccc(S(=O)(=O)N=C(N)N)cc3)c3ccccc3nc12
inactive: SW-620 7.23 µM | NCI-H522 3.97 µM | M14 30.8 µM | 786-0 18 µM | SF-268 7.24 µM | OVCAR-4 13.5 µM | SNB-19 3.37 µM | U-251 8.36 µM | SK-MEL-2 19.2 µM | HT-29 16.3 µM | LOX IMVI 5.94 µM | IGROV-1 7.1 µM | RXF 393 28 µM | OVCAR-8 8.79 µM
99.1 µM: HCT-15

COC(=O)C1C(=O)O[C@@H](c2ccc(OC)cc2)C1C(=O)OC (stereo not given in full)
inactive: SW-620 > 100 µM | M14 > 100 µM | 786-0 > 100 µM | RPMI-8226 > 100 µM | SF-268 > 100 µM | OVCAR-4 > 100 µM | SNB-19 > 100 µM | U-251 > 100 µM | HT-29 > 100 µM | LOX IMVI > 100 µM | IGROV-1 > 100 µM | RXF 393 > 100 µM | HCC 2998 > 100 µM | OVCAR-8 > 100 µM

C/C(CCN(C)C)=N/O
active: M14 0.859 µM | RPMI-8226 0.313 µM | OVCAR-4 < 0.01 µM | HT-29 0.658 µM | OVCAR-8 0.826 µM
11.7 µM: HCT-15
inactive: SW-620 2.71 µM | 786-0 2.81 µM | SF-268 1.49 µM | SNB-19 35.9 µM | U-251 6.59 µM | SK-MEL-2 16.5 µM | IGROV-1 18.9 µM | RXF 393 6.05 µM | HCC 2998 1.16 µM

O=C(Nc1c(O)[nH]c(=S)[nH]c1=O)c1ccccc1
> 100 µM: HCT-15
inactive: SW-620 > 100 µM | NCI-H522 > 100 µM | M14 > 100 µM | 786-0 > 100 µM | RPMI-8226 > 100 µM | SF-268 > 100 µM | OVCAR-4 > 100 µM | SNB-19 > 100 µM | U-251 > 100 µM | SK-MEL-2 > 100 µM | HT-29 > 100 µM | LOX IMVI > 100 µM | IGROV-1 > 100 µM | OVCAR-8 > 100 µM
